Data published in patent US20200024278A1, “COMPOSITION COMPRISING ANTIBIOTIC COMPOUND AND AN HETEROCYCLIC COMPOUND AND THEIR USE IN PREVENTING OR TREATING BACTERIAL INFECTIONS” (MUTABILIS, priority 2016, published 2020).
Where two headings read alike, the source gives them in different places.

Tests used:
Assay in all cases: MIC, broth microdilution (CLSI), substance alone or ATB combined with compound at 4 or 8 μg/mL
ECO 190317 = type: cell-based, E. coli; settings: Escherichia coli; antibiotic alone; ECO 190317; read-out: MIC ATB alone
How it was run: (§1)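 CLSI M7-A7 broth microdilution. ca-MHB, 5·10^5 CFU/mL log-phase cells, 16-20 h, 35° C, ambient air. Fosfomycin wells + 25 μg/ml glucose-6-phosphate. Visual MIC read.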

ECO UFR39 = type: cell-based, E. coli; settings: Escherichia coli; antibiotic alone; ECO UFR39; read-out: MIC ATB alone
How it was run: as §1

KPN 6299 = type: cell-based, K. pneumoniae; settings: Klebsiella pneumoniae, antibiotic alone, read-out: MIC ATB alone
How it was run: as §1

KPN BAA-1898 = type: cell-based, K. pneumoniae; settings: Klebsiella pneumoniae, BAA1898, KPN BAA-1898
How it was run: as §1

KPN UFR42 = type: cell-based, K. pneumoniae; settings: Klebsiella pneumoniae; antibiotic alone; KPN UFR42; read-out: MIC ATB alone
How it was run: as §1

ECL P99 = type: cell-based, E. cloacae; settings: Enterobacter cloacae, ECL P99
How it was run: as §1

PAE 105250 = type: cell-based, P. aeruginosa; settings: Pseudomonas aeruginosa, PAE 105250
How it was run: as §1

PAE UFR48 = type: cell-based, P. aeruginosa; settings: Pseudomonas aeruginosa, PAE UFR48
How it was run: as §1

PAE UFR90 = type: cell-based, P. aeruginosa; settings: Pseudomonas aeruginosa, PAE UFR90
How it was run: as §1

SAU 29213 = type: cell-based, S. aureus; settings: Staphylococcus aureus
How it was run: as §1

SPN 49619 = type: cell-based, S. pneumoniae; settings: Streptococcus pneumoniae, SPN 49619
How it was run: as §1

ABA UFR154 = type: cell-based, A. baumannii
How it was run: as §1

ABA UFR155 = type: cell-based, A. baumannii
How it was run: as §1

[1] = antibiotic alone, read-out: MIC ATB alone
[2] = Acinetobacter baumannii, antibiotic alone, read-out: MIC ATB alone

CO/N=C(\C(=O)N[C@@H]1C(=O)N2C(C(=O)[O-])=C(C[N+]3(C)CCCC3)CS[C@H]12)c1csc(N)n1 [FEP, Cefepime]
MIC (ECO 190317): 512 µg/mL
MIC (ECO UFR39): > 128 µg/mL
MIC (KPN 6299): 128 µg/mL
MIC (KPN BAA-1898; [1]): 64 µg/mL
MIC (KPN BAA-1898; substance alone, read-out: MIC): 64 µg/mL
MIC (KPN UFR42): 128 µg/mL
MIC (ECL P99; [1]): 2 µg/mL
MIC (ECL P99; substance alone, read-out: MIC): 2 µg/mL
MIC (PAE 105250; [1]): 8 µg/mL
MIC (PAE 105250; substance alone, read-out: MIC): 8 µg/mL
MIC (PAE UFR48; [1]): 64 µg/mL
MIC (PAE UFR48; substance alone, read-out: MIC): 64 µg/mL
MIC (PAE UFR90; [1]): 16 µg/mL
MIC (PAE UFR90; substance alone, read-out: MIC): 16 µg/mL
MIC (SAU 29213; antibiotic alone, SAU 29213, read-out: MIC ATB alone): 4 µg/mL
MIC (SAU 29213; substance alone, SAU 29213 (MSSA 29213), read-out: MIC): 4 µg/mL
MIC (SPN 49619; [1]): 0.063 µg/mL
MIC (SPN 49619; substance alone, read-out: MIC): 0.063 µg/mL
MIC (ABA UFR154; [2]): 2 µg/mL
MIC ATB combined with Example 1 @8 μg/ml (ABA UFR154; with Example 1 @8 μg/ml): 2 µg/mL
MIC ATB combined with Example 3 @8 μg/ml (ABA UFR154; with Example 3 @8 μg/ml): 1 µg/mL
MIC ATB combined with Example 6 @8 μg/ml (ABA UFR154; with Example 6 @8 μg/ml): 1 µg/mL
MIC ATB combined with Example 9 @4 μg/ml (ABA UFR154; with Example 9 @4 μg/ml): 1 µg/mL
MIC ATB combined with Example 10 @8 μg/ml (ABA UFR154; with Example 10 @8 μg/ml): 0.5 µg/mL
MIC ATB combined with Example 11 @8 μg/ml (ABA UFR154; with Example 11 @8 μg/ml): 1 µg/mL
MIC ATB combined with Example 12 @8 μg/ml (ABA UFR154; with Example 12 @8 μg/ml): 1 µg/mL
MIC ATB combined with Example 15 @4 μg/ml (ABA UFR154; with Example 15 @4 μg/ml): 2 µg/mL
MIC (ABA UFR155; [2]): 128 µg/mL
MIC ATB combined with Example 1 @8 μg/ml (ABA UFR155; with Example 1 @8 μg/ml): 64 µg/mL
MIC ATB combined with Example 3 @8 μg/ml (ABA UFR155; with Example 3 @8 μg/ml): 32 µg/mL
MIC ATB combined with Example 6 @8 μg/ml (ABA UFR155; with Example 6 @8 μg/ml): 16 µg/mL
MIC ATB combined with Example 9 @4 μg/ml (ABA UFR155; with Example 9 @4 μg/ml): 32 µg/mL
MIC ATB combined with Example 10 @8 μg/ml (ABA UFR155; with Example 10 @8 μg/ml): 64 µg/mL
MIC ATB combined with Example 11 @8 μg/ml (ABA UFR155; with Example 11 @8 μg/ml): 64 µg/mL
MIC ATB combined with Example 12 @8 μg/ml (ABA UFR155; with Example 12 @8 μg/ml): 64 µg/mL
MIC ATB combined with Example 15 @4 μg/ml (ABA UFR155; with Example 15 @4 μg/ml): 32 µg/mL
